Assay [1] in a line: Hypoglycemic effect of metformin in high-fat diet fed control and Mfn1LKO mice (blood glucose). It counts as in vivo. To be noted: metformin 125 mg/kg injected after overnight fast; 8 weeks high-fat diet; Mfn1LKO vs control mice. An excerpt:
12 week old Control and Mfn1 LKO mice were fed for 8 weeks with a high-fat diet (D12492, Research Diets Inc., USA).

In a further assay the test system is AMPK. Put plainly: AMPK activation in liver after metformin injection (western blot of markers CRTC2, elF2alpha, GAPDH). It is filed as in vivo. To be noted: metformin 125 mg/kg; livers taken 90 minutes later; high-fat diet; Mfn1 LKO vs control mice. Here is the method: 12 week old Control and Mfn1 LKO mice were fed for 8 weeks with a high-fat diet (D12492, Research Diets Inc., USA). Then, mice were fasted overnight and injected with either saline (as vehicle) or metformin (125 mg/kg). Mice were sacrificed 90 minutes later and livers were immediately extracted and frozen. Protein extracts were obtained and used for western blot analyses to test the markers of AMPK activation: CRTC2, elF2alpha and GAPDH.
(In western blotting, separated proteins are transferred to a membrane and probed.)

In the next assay the test system is mitochondrial Complex I. Put plainly: Metformin inhibition of mitochondrial respiration (respirometry, metformin titrated). To be noted: liver mitochondria from WT and Mfn1 LKO mice, malate, glutamate, ADP. It is filed as biochemical.

This note sets out measurements from patent US20190204342A1, “METHODS AND USES OF MITOFUSINS” (NESTEC S.A., priority 2014, published 2019).

Experimental for mitochondrial Complex I: Freshly extracted mitochondria from WT and Mfn1LKO mice were homogenized in respiration medium and 2 mg of tissue were used for respirometry analyses. In them, complex I activity was stimulated by the addition of malate and glutamate. Then, ADP was added to achieve maximal coupled respiration and metformin was subsequently titrated.
Freshly extracted mitochondria from WT and Mfn1 LKO mice were resuspended in respiration medium and 100 μg of protein were used for respirometry analyses. Complex I activity was stimulated by the addition of malate and glutamate. Then, ADP was added to achieve maximal coupled respiration and metformin was subsequently titrated.

On to `CN(C)C(=N)N=C(N)N` [metformin, Metformin], for which the “hypoglycemic effect (blood glucose levels)” value in assay [1] was “enhanced in Mfn1LKO mice”. Besides, the “AMPK activation (markers of AMPK activation)” value in the assay on AMPK was “enhanced AMPK activation”. In the assay on mitochondrial Complex I, the “mitochondrial Complex I respiration inhibition” value is “inhibited more in the Mfn1 LKO mice than in the control mice”.
